Laboratory results published in patent publication US11634404B2 (priority 2016, dated 2023).

Key:
Format in all cases: cell-based
panel of 168 GPCRs [1] = target: panel of 168 GPCRs (Homo sapiens, UniProt O43614); details: GPCR HCRTR2; agonist, 10 μM
panel of 168 GPCRs [2] = target: panel of 168 GPCRs (Homo sapiens, UniProt Q99788); details: GPCR CMKLR1; agonist, 10 μM
panel of 168 GPCRs [3] = target: panel of 168 GPCRs (Homo sapiens, UniProt Q96LB1); details: GPCR MRGPRX2; agonist, 10 μM
panel of 168 GPCRs [4] = target: panel of 168 GPCRs (Homo sapiens, UniProt P21462); details: GPCR FPR1; agonist, 10 μM
panel of 168 GPCRs [5] = target: panel of 168 GPCRs (Homo sapiens, UniProt P35462); details: GPCR DRD3; agonist, 10 μM
panel of 168 GPCRs [6] = target: panel of 168 GPCRs (Homo sapiens, UniProt Q9H3N8); details: GPCR HRH4; agonist, 10 μM
panel of 168 GPCRs [7] = target: panel of 168 GPCRs (Homo sapiens, UniProt P30518); details: GPCR AVPR2; agonist, 10 μM
panel of 168 GPCRs [8] = target: panel of 168 GPCRs (Homo sapiens, UniProt P49682); details: GPCR CXCR3; agonist, 10 μM
panel of 168 GPCRs [9] = target: panel of 168 GPCRs (Homo sapiens, UniProt P46663); details: GPCR BDKRB1; agonist, 10 μM
panel of 168 GPCRs [10] = target: panel of 168 GPCRs (Homo sapiens, UniProt P25021); details: GPCR HRH2; agonist, 10 μM
panel of 168 GPCRs [11] = target: panel of 168 GPCRs (Homo sapiens, UniProt Q9Y5N1); details: GPCR HRH3; agonist, 10 μM
panel of 168 GPCRs [12] = target: panel of 168 GPCRs (Homo sapiens, UniProt Q96LB2); details: GPCR MRGPRX1; agonist, 10 μM
panel of 168 GPCRs [13] = target: panel of 168 GPCRs (Homo sapiens, UniProt P51681); details: GPCR CCR5; agonist, 10 μM
panel of 168 GPCRs [14] = target: panel of 168 GPCRs (Homo sapiens, UniProt P43116); details: GPCR PTGER2; agonist, 10 μM
panel of 168 GPCRs [15] = target: panel of 168 GPCRs (Homo sapiens, UniProt P35408); details: GPCR PTGER4; agonist, 10 μM
panel of 168 GPCRs [16] = target: panel of 168 GPCRs (Homo sapiens, UniProt P35414); details: GPCR AGTRL1; agonist, 10 μM
panel of 168 GPCRs [17] = target: panel of 168 GPCRs (Homo sapiens, UniProt P21730); details: GPCR C5AR1; agonist, 10 μM
panel of 168 GPCRs [18] = target: panel of 168 GPCRs (Homo sapiens, UniProt Q16581); details: GPCR C3AR1; agonist, 10 μM
panel of 168 GPCRs [19] = target: panel of 168 GPCRs (Homo sapiens, UniProt P08912); details: GPCR CHRM5; agonist, 10 μM
panel of 168 GPCRs [20] = target: panel of 168 GPCRs (Homo sapiens, UniProt P49238); details: GPCR CX3CR1; agonist, 10 μM
panel of 168 GPCRs [21] = target: panel of 168 GPCRs (Homo sapiens, UniProt P28566); details: GPCR HTR1E; agonist, 10 μM
panel of 168 GPCRs [22] = target: panel of 168 GPCRs (Homo sapiens, UniProt Q13324); details: GPCR CRHR2; agonist, 10 μM
panel of 168 GPCRs [23] = target: panel of 168 GPCRs (Homo sapiens, UniProt Q03431); details: GPCR PTHR1; agonist, 10 μM
Sequence of panel of 168 GPCRs (Homo sapiens, UniProt Q03431) (Q03431 27-593 limits assumed): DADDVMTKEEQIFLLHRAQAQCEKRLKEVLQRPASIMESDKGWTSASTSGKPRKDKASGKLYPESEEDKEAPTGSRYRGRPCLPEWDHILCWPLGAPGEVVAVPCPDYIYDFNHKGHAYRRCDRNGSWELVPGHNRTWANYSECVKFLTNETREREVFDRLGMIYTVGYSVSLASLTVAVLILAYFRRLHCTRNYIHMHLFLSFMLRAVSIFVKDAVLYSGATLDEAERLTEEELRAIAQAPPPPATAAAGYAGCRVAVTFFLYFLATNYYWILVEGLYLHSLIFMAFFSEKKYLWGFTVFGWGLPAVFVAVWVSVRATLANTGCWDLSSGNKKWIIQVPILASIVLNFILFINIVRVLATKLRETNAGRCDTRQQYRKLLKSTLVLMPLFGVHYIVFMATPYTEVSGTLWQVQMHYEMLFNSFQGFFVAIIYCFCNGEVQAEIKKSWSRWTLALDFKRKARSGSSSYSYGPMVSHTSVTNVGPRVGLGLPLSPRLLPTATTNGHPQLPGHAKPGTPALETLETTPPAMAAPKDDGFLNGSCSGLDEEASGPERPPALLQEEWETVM

panel of 168 GPCRs [24] = target: panel of 168 GPCRs (Homo sapiens, UniProt P23945); details: GPCR FSHR; agonist, 10 μM
Sequence of panel of 168 GPCRs (Homo sapiens, UniProt P23945) (P23945 18-695 limits assumed): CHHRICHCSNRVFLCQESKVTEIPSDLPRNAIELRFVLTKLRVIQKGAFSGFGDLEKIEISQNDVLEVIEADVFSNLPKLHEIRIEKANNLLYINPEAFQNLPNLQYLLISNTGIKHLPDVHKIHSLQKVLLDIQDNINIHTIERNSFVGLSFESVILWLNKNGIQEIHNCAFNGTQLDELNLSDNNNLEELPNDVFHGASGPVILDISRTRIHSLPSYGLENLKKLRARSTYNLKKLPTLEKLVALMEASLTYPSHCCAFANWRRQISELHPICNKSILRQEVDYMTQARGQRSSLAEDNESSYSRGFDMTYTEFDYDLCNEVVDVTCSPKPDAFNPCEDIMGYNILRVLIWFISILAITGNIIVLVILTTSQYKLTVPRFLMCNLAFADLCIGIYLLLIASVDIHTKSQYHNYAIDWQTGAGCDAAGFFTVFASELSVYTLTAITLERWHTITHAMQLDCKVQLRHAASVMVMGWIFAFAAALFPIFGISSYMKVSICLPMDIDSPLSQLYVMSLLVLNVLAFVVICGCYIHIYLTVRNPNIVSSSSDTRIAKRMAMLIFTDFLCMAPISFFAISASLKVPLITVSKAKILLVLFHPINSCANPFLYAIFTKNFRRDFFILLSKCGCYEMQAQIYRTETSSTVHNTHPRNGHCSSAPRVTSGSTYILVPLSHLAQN

panel of 168 GPCRs [25] = target: panel of 168 GPCRs (Homo sapiens, UniProt Q9UBY5); details: GPCR EDG7; agonist, 10 μM
panel of 168 GPCRs [26] = target: panel of 168 GPCRs (Homo sapiens, UniProt P41586); details: GPCR ADCYAP1R1; agonist, 10 μM
Sequence of panel of 168 GPCRs (Homo sapiens, UniProt P41586) (P41586 21-468 limits assumed): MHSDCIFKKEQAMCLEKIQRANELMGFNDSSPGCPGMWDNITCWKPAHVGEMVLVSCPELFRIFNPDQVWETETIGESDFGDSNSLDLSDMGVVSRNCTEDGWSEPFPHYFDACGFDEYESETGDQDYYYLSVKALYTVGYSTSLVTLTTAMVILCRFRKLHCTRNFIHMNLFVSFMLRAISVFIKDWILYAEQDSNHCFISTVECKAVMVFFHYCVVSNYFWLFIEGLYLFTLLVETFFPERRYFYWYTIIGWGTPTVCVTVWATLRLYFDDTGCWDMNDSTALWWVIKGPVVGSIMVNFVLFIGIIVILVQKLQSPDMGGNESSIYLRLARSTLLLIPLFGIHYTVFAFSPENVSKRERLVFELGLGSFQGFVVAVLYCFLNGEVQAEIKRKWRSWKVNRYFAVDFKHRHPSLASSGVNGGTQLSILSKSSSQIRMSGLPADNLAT

panel of 168 GPCRs [27] = target: panel of 168 GPCRs (Homo sapiens, UniProt Q9UKP6); details: GPCR UTR2; agonist, 10 μM
panel of 168 GPCRs [28] = target: panel of 168 GPCRs (Homo sapiens, UniProt P49683); details: GPCR PRLHR; agonist, 10 μM
panel of 168 GPCRs [29] = target: panel of 168 GPCRs (Homo sapiens, UniProt P35367); details: GPCR HRH1; agonist, 10 μM
panel of 168 GPCRs [30] = target: panel of 168 GPCRs (Homo sapiens, UniProt P43119); details: GPCR PTGIR; agonist, 10 μM
panel of 168 GPCRs [31] = target: panel of 168 GPCRs (Homo sapiens, UniProt P30559); details: GPCR OXTR; agonist, 10 μM

COc1ccc(OCCN2CCN(C(=O)c3cc4ccccc4[nH]3)CC2)cc1 [Compound 1, (1H-indol-2-yl)(4-(2-(4-methoxyphenoxy)ethyl)piperazin-1-yl)methanone]
β-Arrestin Recruitment activity (panel of 168 GPCRs [1]): 0%
β-Arrestin Recruitment activity (panel of 168 GPCRs [2]): 0%
β-Arrestin Recruitment activity (panel of 168 GPCRs [3]): 5%
β-Arrestin Recruitment activity (panel of 168 GPCRs [4]): 5%
β-Arrestin Recruitment activity (panel of 168 GPCRs [5]): 164%
β-Arrestin Recruitment activity (panel of 168 GPCRs [6]): 8%
β-Arrestin Recruitment activity (panel of 168 GPCRs [7]): 4%
β-Arrestin Recruitment activity (panel of 168 GPCRs [8]): 5%
β-Arrestin Recruitment activity (panel of 168 GPCRs [9]): 0%
β-Arrestin Recruitment activity (panel of 168 GPCRs [10]): 3%
β-Arrestin Recruitment activity (panel of 168 GPCRs [11]): 3%
β-Arrestin Recruitment activity (panel of 168 GPCRs [12]): 3%
β-Arrestin Recruitment activity (panel of 168 GPCRs [13]): 0%
β-Arrestin Recruitment activity (panel of 168 GPCRs [14]): −3%
β-Arrestin Recruitment activity (panel of 168 GPCRs [15]): 6%
β-Arrestin Recruitment activity (panel of 168 GPCRs [16]): 4%
β-Arrestin Recruitment activity (panel of 168 GPCRs [17]): 0%
β-Arrestin Recruitment activity (panel of 168 GPCRs [18]): 0%
β-Arrestin Recruitment activity (panel of 168 GPCRs [19]): 3%
β-Arrestin Recruitment activity (panel of 168 GPCRs [20]): 0%
β-Arrestin Recruitment activity (panel of 168 GPCRs [21]): 4%
β-Arrestin Recruitment activity (panel of 168 GPCRs [22]): 0%
β-Arrestin Recruitment activity (panel of 168 GPCRs [23]): 0%
β-Arrestin Recruitment activity (panel of 168 GPCRs [24]): 5%
β-Arrestin Recruitment activity (panel of 168 GPCRs [25]): 6%
β-Arrestin Recruitment activity (panel of 168 GPCRs [26]): 6%
β-Arrestin Recruitment activity (panel of 168 GPCRs [27]): 0%
β-Arrestin Recruitment activity (panel of 168 GPCRs [28]): 4%
β-Arrestin Recruitment activity (panel of 168 GPCRs [29]): 0%
β-Arrestin Recruitment activity (panel of 168 GPCRs [30]): 4%
β-Arrestin Recruitment activity (panel of 168 GPCRs [31]): 0%
